Assay results as given in the CheMixHub viscosity set.

Assay: xn = mol fraction of the nth substance listed

CC(=O)O + c1ccncc1
Details	viscosity [mPa·s]
293.15 K, 101 kPa, x2 = 0.104	4.421
293.15 K, 101 kPa, x2 = 0.2205	5.037
293.15 K, 101 kPa, x2 = 0.383	3.024
293.15 K, 101 kPa, x2 = 0.401	2.885
293.15 K, 101 kPa, x2 = 0.481	2.188
293.15 K, 101 kPa, x2 = 0.579	1.762
293.15 K, 101 kPa, x2 = 0.738	1.289
303.15 K, 101 kPa, x1 = 0.135	0.9842
303.15 K, 101 kPa, x1 = 0.2599	1.139
303.15 K, 101 kPa, x1 = 0.3756	1.346
303.15 K, 101 kPa, x1 = 0.4837	1.648
303.15 K, 101 kPa, x1 = 0.5841	2.075
303.15 K, 101 kPa, x1 = 0.6781	2.704
303.15 K, 101 kPa, x1 = 0.766	3.398
303.15 K, 101 kPa, x1 = 0.8509	3.624
303.15 K, 101 kPa, x1 = 0.9266	2.558
308.15 K, 101.33 kPa, x2 = 0.15	3.2
308.15 K, 101.33 kPa, x2 = 0.2	3.17
308.15 K, 101.33 kPa, x2 = 0.25	2.887
308.15 K, 101.33 kPa, x2 = 0.3	2.55
308.15 K, 101.33 kPa, x2 = 0.4	1.928
308.15 K, 101.33 kPa, x2 = 0.6	1.27
308.15 K, 101.33 kPa, x2 = 0.8	1.052
313.15 K, 101.33 kPa, x1 = 0.5	1.68
313.15 K, 101.33 kPa, x1 = 0.8	2.91
313.15 K, 101.33 kPa, x1 = 0.825	2.93
313.15 K, 101.33 kPa, x1 = 0.85	2.85
318.15 K, 101.33 kPa, x2 = 0.15	2.35
318.15 K, 101.33 kPa, x2 = 0.2	2.38
318.15 K, 101.33 kPa, x2 = 0.25	2.2
318.15 K, 101.33 kPa, x2 = 0.3	1.985
318.15 K, 101.33 kPa, x2 = 0.4	1.52
318.15 K, 101.33 kPa, x2 = 0.6	1.07
318.15 K, 101.33 kPa, x2 = 0.8	0.896

CC(=O)O + Cc1ccccc1
viscosity [mPa·s]
Details	293.15 K	303.15 K	313.15 K	323.15 K
101 kPa, x2 = 0.0642	–	–	0.9448	0.8122
101 kPa, x2 = 0.2052	–	–	0.6513	0.4846
101 kPa, x2 = 0.7929	–	–	0.4859	0.4171
101.33 kPa, x2 = 0.022	1.143	0.9772	0.8709	0.7709
101.33 kPa, x2 = 0.0569	1.06	0.907	0.8111	0.7288
101.33 kPa, x2 = 0.1191	0.9245	0.8216	0.731	0.641
101.33 kPa, x2 = 0.1879	0.8359	0.741	0.6554	0.59
101.33 kPa, x2 = 0.2626	0.7694	0.6753	0.603	0.5446
101.33 kPa, x2 = 0.352	0.7293	0.6216	0.561	0.5072
101.33 kPa, x2 = 0.4459	0.6757	0.5903	0.522	0.474
101.33 kPa, x2 = 0.4893	0.6542	0.5766	0.5131	0.4647
101.33 kPa, x2 = 0.5579	0.6349	0.5578	0.5022	0.4559
101.33 kPa, x2 = 0.6302	0.6233	0.5464	0.491	0.4486
101.33 kPa, x2 = 0.6817	0.6144	0.5382	0.4828	0.4384
101.33 kPa, x2 = 0.7391	0.6055	0.5304	0.4757	0.4319
101.33 kPa, x2 = 0.861	0.5941	0.5201	0.4619	0.42
101.33 kPa, x2 = 0.9262	0.588	0.513	0.4611	0.4194
101.33 kPa, x2 = 0.9645	0.5842	0.5088	0.4574	0.4163

CCC[N+](C)(C)C.O=S(=O)([N-]S(=O)(=O)C(F)(F)F)C(F)(F)F + CCC[N+]1(C)CCCC1.O=S(=O)([N-]S(=O)(=O)C(F)(F)F)C(F)(F)F
viscosity [mPa·s], 101.3 kPa
Details	x1 = 0.2	x1 = 0.4	x1 = 0.6	x1 = 0.8
293.15 K	78.4	81.2	88.3	93.6
298.15 K	62.8	64.9	–	73.8
303.15 K	51.1	52.5	56.3	59.2

C[C@H]1COc2c(N3CCN(C)CC3)c(F)cc3c(=O)c(C(=O)O)cn1c23 + O
viscosity [mPa·s], 100 kPa
Details	293.15 K	298.15 K	303.15 K	308.15 K	313.15 K
x1 = 0.00015	1.009	0.8934	0.8026	0.7256	0.6575
x1 = 0.000344	1.016	0.889	0.8085	0.7296	0.6617
x1 = 0.000425	1.019	0.9064	0.8134	0.7336	0.6673
